Experimental data: US7638505B2, “Organophosphoric derivatives useful as anti-parasitic agents” (priority 2005, dated 2009)
Like-named read-outs stand apart in the source and are kept apart here. Blank lines part the entries; values can stand above or below the molecule they belong to.

How the values were obtained:
[1] = system: Plasmodium falciparum strain Dd2; assay: in vitro anti-malarial activity, [3H]hypoxanthine incorporation, strain Dd2; type: cell-based; settings: for activity in the Dd2 cell line with respect to the reference compounds fosmidomycin and FR900098: same conditions, similar experimental setup
Procedure: (§1) The in vitro anti-malarial activity of some of the compounds prepared in example 1 was determined as follows. Intraerythrocytic stages of the Plasmodium falciparum strains 3D7 and Dd2 were respectively incubated with serial dilutions of the relevant compounds and the viability of the parasites was assessed by their ability to incorporate [^3H]hypoxanthine into DNA. Inhibition results were expressed as IC50.

[2] = system: Plasmodium falciparum strain 3D7; assay: in vitro anti-malarial activity, [3H]hypoxanthine incorporation, strain 3D7; type: cell-based; settings: P. falciparum strain 3D7, intraerythrocytic stages
Procedure: as §1

Plasmodium vinckei = settings: cited from earlier work
Plasmodium falciparum = settings: cited from earlier work
[3] = system: Plasmodium falciparum strain Dd2; settings: P. falciparum Dd2, WO 2005/048715; cited from earlier work
[4] = system: acute, uncomplicated Plasmodium falciparum malaria; settings: clinical trials, Gabon and Thailand; cited from earlier work
[5] = in vivo; cited from earlier work
[6] = Plasmodium falciparum, DD2, read-out: IC50 (μM) Dd2

SMILES: CC(=O)N(O)CCC(c1ccc(Cl)cc1)P(=O)(O)O (centres unmarked) [Compound 2d, 3-(N-hydroxyacetamido)-1-(4-chlorophenyl)propylphosphonic acid]
IC50 [1, 6]: 0.095 µM
IC50 ([2]; Plasmodium falciparum): 0.35 µM

SMILES: CC(=O)N(O)CCC(c1ccc(C#N)cc1)P(=O)(O)O.N.N (centres unmarked) [Compound 104b, Bisammonium 3-[N-acetyl. N-(hydroxy)amino]-1-(4-cyanophenyl)-propylphosphonate]
activity in the Dd2 cell line with respect to the reference compounds fosmidomycin and FR900098 [1]: substantial higher activity

SMILES: CC(=O)N(O)CCC(c1ccc(Cl)c(Cl)c1)P(=O)(O)O (centres unmarked) [Compound 2e, 3-(N-hydroxyacetamido)-1-(3,4-dichlorophenyl)propylphosphonic acid]
IC50 [1, 6]: 0.09 µM
IC50 ([2]; Plasmodium falciparum): 0.25 µM

SMILES: CC(=O)N(O)CCCP(=O)(O)O [FR900098, reference compound]
IC50 ([1]; P. falciparum strain Dd2, intraerythrocytic stages, read-out: IC50 (μM) Dd2): 0.18 µM
activity relative to fosmidomycin in Plasmodium vinckei mouse model (Plasmodium vinckei): approximately twice more active than fosmidomycin
IC50 [2]: 0.32 µM
activity relative to fosmidomycin against Plasmodium falciparum in vitro (Plasmodium falciparum): approximately twice more active than fosmidomycin

SMILES: O=CN(O)CCC(c1ccccc1)P(=O)(O)O.OCCNCCO (stereo not drawn) [α-phenyl-fosmidomycin diethanolammonium salt]
IC50 value relative to fosmidomycin (times less) [3]: 4.5 times

SMILES: COc1ccc(C(CCN(O)C=O)P(=O)(O)O)cc1 (centres unmarked) [Compound 1c, 3-(N-hydroxyformamido)-1-(4-methoxyphenyl)propylphosphonic acid]
IC50 [1, 6]: 0.2 µM
IC50 ([2]; Plasmodium falciparum): 0.36 µM

SMILES: N#Cc1ccc(C(CCN(O)C=O)P(=O)(O)O)cc1 (centres unmarked) [Compound 105, 3-[N-formyl,N-(hydroxy)amino]-1-(4-cyanophenyl)-propylphosphonic acid]
activity in the Dd2 cell line with respect to the reference compounds fosmidomycin and FR900098 [1]: substantial higher activity

IC50 ([1]; Plasmodium falciparum, P. falciparum strain Dd2, intraerythrocytic stages, read-out: IC50 (μM) Dd2): 0.028 µM
IC50 ([2]; Plasmodium falciparum): 0.09 µM
SMILES: O=CN(O)CCC(c1ccc(Cl)c(Cl)c1)P(=O)(O)O (centres unmarked) [Compound 1e, 3-(N-hydroxyformamido)-1-(3,4-dichlorophenyl)propylphosphonic acid]
in vitro antimalarial activity relative to fosmidomycin ([1]; inhibition of parasite growth, strain not named in the sentence (table: Dd2 and 3D7)): twelve-fold more active than fosmidomycin
in vitro antimalarial activity relative to FR900098 ([1]; strain not named in the sentence (table: Dd2 and 3D7)): exceeds the activity of FR900098

SMILES: O=CN(O)CCCP(=O)(O)O [fosmidomycin]
treatment of patients suffering from acute, uncomplicated Plasmodium falciparum malaria [4]: proved to be efficient
IC50 [1, 6]: 0.36 µM
IC50 ([2]; Plasmodium falciparum): 1.1 µM
plasma half-life [5]: short
resorption rate [5]: moderate

SMILES: CC(=O)N(O)CCC(c1ccccc1)P(=O)(O)O.OCCNCCO (stereo not drawn) [α-phenyl-FR900098 diethanolammonium salt]
IC50 value relative to FR900098 [3]: higher than FR900098
